# Experiments:
# [1] = target: T1, ubiquitin E1 (UBA1) (Homo sapiens, UniProt P22314); assay: […]-AMP:[α-32P]-ATP exchange TLC assay; type: biochemical
# T1 sequence (P22314 2-1058): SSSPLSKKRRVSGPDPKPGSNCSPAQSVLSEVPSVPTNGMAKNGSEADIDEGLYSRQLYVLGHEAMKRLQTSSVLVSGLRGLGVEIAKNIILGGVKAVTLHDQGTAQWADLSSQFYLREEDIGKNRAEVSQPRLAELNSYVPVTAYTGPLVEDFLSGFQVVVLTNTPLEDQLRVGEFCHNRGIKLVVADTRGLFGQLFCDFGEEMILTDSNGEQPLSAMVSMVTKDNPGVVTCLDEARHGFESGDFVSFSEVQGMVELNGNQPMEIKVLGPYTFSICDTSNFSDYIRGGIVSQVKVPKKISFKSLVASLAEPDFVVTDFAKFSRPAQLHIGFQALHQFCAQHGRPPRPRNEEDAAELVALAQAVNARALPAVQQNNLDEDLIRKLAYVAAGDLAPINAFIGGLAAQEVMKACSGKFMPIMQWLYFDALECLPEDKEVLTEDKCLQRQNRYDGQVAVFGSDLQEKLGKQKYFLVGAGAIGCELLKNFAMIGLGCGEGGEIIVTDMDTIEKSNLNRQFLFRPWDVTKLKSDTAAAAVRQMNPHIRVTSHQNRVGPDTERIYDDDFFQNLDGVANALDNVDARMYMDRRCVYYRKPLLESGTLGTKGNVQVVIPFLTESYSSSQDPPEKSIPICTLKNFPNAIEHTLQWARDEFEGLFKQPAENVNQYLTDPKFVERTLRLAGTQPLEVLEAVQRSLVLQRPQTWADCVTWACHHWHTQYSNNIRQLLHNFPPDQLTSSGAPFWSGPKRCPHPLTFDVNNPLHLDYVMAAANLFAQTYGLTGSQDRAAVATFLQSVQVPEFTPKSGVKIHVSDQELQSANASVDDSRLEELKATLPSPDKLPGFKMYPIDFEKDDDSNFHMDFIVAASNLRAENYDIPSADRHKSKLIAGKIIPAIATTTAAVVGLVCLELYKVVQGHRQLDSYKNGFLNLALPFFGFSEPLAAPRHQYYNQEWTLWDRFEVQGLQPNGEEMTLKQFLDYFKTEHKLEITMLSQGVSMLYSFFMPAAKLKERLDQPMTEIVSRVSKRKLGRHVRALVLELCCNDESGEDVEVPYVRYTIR
# [2] = target: T1, ubiquitin E1 (UBA1); assay: E1-ubiquitin thioester gel assay with fluorescein-ubiquitin without E2; type: biochemical
IC50 [1],IC50 [2],Structure (SMILES)
6.4 µM,–,CCOC(=O)c1ccc(N2NC(=O)C(=Cc3ccc([N+](=O)[O-])o3)C2=O)cc1 [PYR-41]
–,~9 µM,"CCCCCCCCCCNCCSSCc1ccc(Cl)cc1 [compound 1, NSC624206]"
